Data reported in the supplement of paper PMC10307832.

Assays:
Assay in all cases: relative viability (nuclei count vs DMSO), 5 days (fraction); higher = more cells survive
[1] = compound: CC[C@@H](C)CNCC(=O)N1CCC2=C([C@@H]1COC3=CC=CC(=C3)C)C=CS2 [RU-SKI 43] + CC(=O)c1c(C)c2cnc(Nc3ccc(N4CCNCC4)cn3)nc2n(C2CCCC2)c1=O [Palbociclib] (partner 0.5 µM)
Procedure, shortened: (§1)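 Values are medians from duplicate plates. Each reflects relative viability, defined as the nuclei count of treated wells over that of vehicle wells. Lung cancer cell lines in 1536-well plates were pin-tool dosed one day after seeding with one drug alone or with a fixed anchor-drug dose plus five library-drug doses (not always all listed) in √10 steps, then fixed, stained and imaged at 4× after 5 days.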

[2] = compound: CC[C@@H](C)CNCC(=O)N1CCC2=C([C@@H]1COC3=CC=CC(=C3)C)C=CS2 [RU-SKI 43] + CS(=O)(=O)N1CCN(Cc2cc3nc(-c4cccc5[nH]ncc45)nc(N4CCOCC4)c3s2)CC1 [Pictilisib] (partner 1 µM)
Procedure, shortened: as §1

[3] = compound: CCc1c2c(nc3ccc(OC(=O)N4CCC(N5CCCCC5)CC4)cc13)-c1cc3c(c(=O)n1C2)COC(=O)[C@]3(O)CC [Irinotecan] + CS(=O)(=O)CCNCc1ccc(-c2ccc3ncnc(Nc4ccc(OCc5cccc(F)c5)c(Cl)c4)c3c2)o1 [Lapatinib] (partner 2 µM)
Procedure, shortened: as §1

[4] = compound: CCc1c2c(nc3ccc(OC(=O)N4CCC(N5CCCCC5)CC4)cc13)-c1cc3c(c(=O)n1C2)COC(=O)[C@]3(O)CC [Irinotecan] + O=C(c1cc(Cc2n[nH]c(=O)c3ccccc23)ccc1F)N1CCN(C(=O)C2CC2)CC1 [Olaparib] (partner 8 µM)
Procedure, shortened: as §1

Row | Cell Line | relative viability ([1]; first compound 0.1 µM) | relative viability ([1]; first compound 0.3162 µM) | relative viability ([1]; first compound 1 µM) | relative viability ([1]; first compound 3.162 µM) | relative viability ([1]; first compound 10 µM) | relative viability ([2]; first compound 0.1 µM) | relative viability ([2]; first compound 0.3162 µM) | relative viability ([2]; first compound 1 µM) | relative viability ([2]; first compound 3.162 µM) | relative viability ([2]; first compound 10 µM) | relative viability ([3]; first compound 0.6325 µM) | relative viability ([3]; first compound 2 µM) | relative viability ([3]; first compound 6.325 µM) | relative viability ([3]; first compound 20 µM) | relative viability ([4]; first compound 0.6325 µM) | relative viability ([4]; first compound 2 µM) | relative viability ([4]; first compound 6.325 µM) | relative viability ([4]; first compound 20 µM)
1 | HCC-78 | 0.43 | 0.408 | 0.533 | 0.461 | 0.503 | 0.24 | 0.232 | 0.278 | 0.176 | 0.191 | 0.551 | 0.543 | 0.206 | 0.218 | 0.492 | 0.332 | 0.233 | 0.343
2 | NCI-H441 | 0.192 | 0.278 | 0.205 | 0.229 | 0.146 | 0.466 | 0.491 | 0.47 | 0.609 | 0.468 |  |  |  |  | 0.243 | 0.241 | 0.256 | 0.229
3 | NCI-H1299 |  |  |  |  |  | 0.823 | 1.05 | 0.709 | 0.789 | 0.686 | 0.721 | 0.693 | 0.399 | 0.203 | 0.539 | 0.478 | 0.337 | 0.207
4 | LU99A | 0.376 | 0.442 | 0.53 | 0.399 | 0.387 | 0.312 | 0.304 | 0.321 | 0.333 | 0.292 | 0.367 | 0.309 | 0.203 | 0.197 | 0.126 | 0.126 | 0.119 | 0.15
5 | NCI-H1651 | 0.522 | 0.533 | 0.532 | 0.537 | 0.542 | 0.606 | 0.783 | 0.76 | 0.621 | 0.728 | 0.293 | 0.536 | 0.179 | 0.101 | 0.164 | 0.142 | 0.107 | 0.117
6 | HARA | 0.233 | 0.205 | 0.281 | 0.28 | 0.233 | 0.524 | 0.512 | 0.435 | 0.458 | 0.318 | 0.749 | 0.339 | 0.17 | 0.118 | 0.466 | 0.405 | 0.2 | 0.262
7 | RERF-LC-KJ | 1.1 | 1.4 | 1.15 | 1 | 0.851 | 0.535 | 0.529 | 0.61 | 0.548 | 0.476 | 0.833 | 0.692 | 0.439 | 0.364 | 0.806 | 0.56 | 0.38 | 0.243
8 | LCLC-103H | 0.525 | 0.453 | 0.471 | 0.495 | 0.496 | 0.663 | 0.629 | 0.712 | 0.624 | 0.691 |  |  |  |  | 0.469 | 0.483 | 0.407 | 0.444
9 | SK-LU-1 | 0.386 | 0.386 | 0.403 | 0.416 | 0.354 | 0.556 | 0.578 | 0.634 | 0.678 | 0.554 | 0.46 | 0.503 | 0.321 | 0.312 | 0.312 | 0.265 | 0.29 | 0.218
